Data on one molecule can be found in patent US7579491B2, “Process for preparing brevifoliol” (Council of Scientific and Industrial Research, priority 2002, dated 2009).

The assay has as its system different cancer cell lines. The experiment in a line: in vitro testing for anticancer activity. In kind it is cell-based. How it is done: The isolation of brevifoliol from leaves of the plant Taxus wallichiana is also reported in S. K. Chattopadhyay et al Indian J. Chemistry 35B, 175-177(1996) as part of studies on the isolation of anticancer compounds. The process of this disclosure involved extracting the dried and crushed needles of Taxus wallichiana with methanol for 72 hours and the extract was concentrated in vacuo. The concentrate was diluted with water and extracted with hexane and chloroform respectively. Concentration of the chloroform phase under vacuum left a residue which was separated by column chromatography over silica gel. Fraction eluted with chloroform-methanol (98:5) contained brevifoliol which was further purified by re-chromatography over silica gel and eluted with chloroform-methanol (99:2). Fractions containing brevifoliol were combined and concentrated and recrystallized from pet-ether and ethyl acetate mixture to get brevifoliol as needles. […] The detection of anticancer activity in brevifoliol prompted the present investigators to develop an efficient processing technology for isolation of the compound in large quantities from the needles of the plant for further biological testing.

The structures appear in SMILES notation.

On to `C=C1C2C[C@]3(C(C)(C)O)CC(O)C(C)=C3[C@@H](OC(=O)c3ccccc3)[C@H](OC(C)=O)[C@]2(C)[C@@H](OC(C)=O)C[C@@H]1O` (stereo partly shown) [brevifoliol], for which the anticancer activity entry is “significant anticancer activity”.
